IC50 data for 33 compounds are collected here from ChEMBL document CHEMBL1133907, “Discovery of thioazepinone ligands for Src SH2: from non-specific to specific binding” (Bioorg Med Chem Lett, 2001).

Assay [1] concerns the target T1, Proto-oncogene tyrosine-protein kinase Src (Homo sapiens, UniProt P12931). Put plainly: Binding affinity was determined on Src protein tyrosine kinase SH2 domain using scintillation proximity assay (SPA). (Scintillation proximity formats need no separation of bound from free tracer.)
For assay [2], the target named is T1, Proto-oncogene tyrosine-protein kinase Src. As to the kind of experiment: Binding affinity was determined on Src protein tyrosine kinase SH2 domain using fluorescence polarization assay with 2% DMSO in buffer solution. A general note: In fluorescence polarisation assays a small probe gives low polarisation when free and higher when bound to something large.

For assay [3] the target is unchanged. Put plainly: Binding affinity for Src protein tyrosine kinase SH2 domain.
The target is the same in assay [4]. Put plainly: Binding affinity for Src protein tyrosine kinase SH2 domain using fluorescence polarization assay with 20% DMSO in buffer solution.

T1 sequence (P12931 2-536 limits assumed): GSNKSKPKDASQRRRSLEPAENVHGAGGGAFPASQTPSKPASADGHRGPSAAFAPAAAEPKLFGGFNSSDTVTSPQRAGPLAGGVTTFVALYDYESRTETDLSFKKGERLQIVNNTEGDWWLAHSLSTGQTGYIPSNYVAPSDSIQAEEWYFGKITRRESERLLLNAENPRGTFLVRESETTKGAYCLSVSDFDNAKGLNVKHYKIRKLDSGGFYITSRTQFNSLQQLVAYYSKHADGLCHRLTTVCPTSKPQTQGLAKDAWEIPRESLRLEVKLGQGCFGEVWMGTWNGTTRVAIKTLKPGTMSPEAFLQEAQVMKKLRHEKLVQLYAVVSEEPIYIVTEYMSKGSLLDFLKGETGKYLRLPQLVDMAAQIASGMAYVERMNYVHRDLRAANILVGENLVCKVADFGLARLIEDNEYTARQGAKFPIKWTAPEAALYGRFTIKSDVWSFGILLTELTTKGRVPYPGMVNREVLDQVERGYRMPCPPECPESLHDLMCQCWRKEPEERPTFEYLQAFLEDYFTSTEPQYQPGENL

`CC(=O)N[C@@H](Cc1ccc(OP(=O)(O)O)cc1)C(=O)N[C@H]1CSCCN(Cc2ccc(-c3ccccc3)cc2)C1=O` had an IC50 in assay [1] of 0.09 µM. In assay [2], `COc1ccc(C2Sc3ccccc3N(CC(=O)NCc3cccc4ccccc34)C(=O)C2NC(=O)c2ccc3c(Cl)c(OP(=O)(O)OCc4ccccc4)ccc3c2)cc1` (stereo not drawn) returned an IC50 of 27 µM. The compound `COc1ccc(C2Sc3ccccc3N(CC(=O)NCc3cccc4ccccc34)C(=O)C2NC(=O)Cc2ccc(OP(=O)(O)OCc3ccccc3)cc2)cc1` (stereo not drawn) displayed a 50% inhibitory concentration (IC50) in assay [2] of 5 µM. On the same count and under the same terms, for `COc1ccc(C2Sc3ccccc3N(CC(=O)Nc3cccc(Oc4ccccc4)c3)C(=O)C2NC(=O)[C@H](Cc2ccc(OP(=O)(O)OCc3ccccc3)cc2)NC(=O)OC(C)(C)C)cc1` (stereo partly drawn) the value was 14.2 µM. Same read-out and setting: for `COc1ccc(C2Sc3ccccc3N(CC(=O)NCc3cccc4ccccc34)C(=O)C2NC(=O)c2ccc(OP(=O)(O)OCc3ccccc3)cc2)cc1` (stereo not drawn) the value was 20 µM. For `CC(=O)N[C@@H](Cc1ccc(OP(=O)(O)O)cc1)C(=O)N[C@H]1CSCCN(Cc2cccc(-c3ccccc3C#N)c2)C1=O`, the IC50 in assay [1] is 0.3 µM. As to `COc1ccc(C2Sc3ccccc3N(CC(=O)NCc3cccc4ccccc34)C(=O)C2NC(=O)CCc2ccc(OP(=O)(O)OCc3ccccc3)cc2)cc1` (stereo not drawn), the IC50 in assay [2] was determined as 339 µM. On the same count and under the same terms, for `COc1ccc(C2Sc3ccccc3N(Cc3ccccc3)C(=O)C2NC(=O)[C@H](Cc2ccc(OP(=O)(O)OCc3ccccc3)cc2)NC(=O)OC(C)(C)C)cc1` (stereo partly drawn) the value was 46 µM. Still for that read-out and setting: to `COc1ccc(C2Sc3ccccc3N(CC(=O)Nc3ccccc3OC)C(=O)C2NC(=O)[C@H](Cc2ccc(OP(=O)(O)OCc3ccccc3)cc2)NC(=O)OC(C)(C)C)cc1` (stereo partly drawn) belongs 95 µM; to `COc1ccc(C2Sc3ccccc3NC(=O)C2NC(=O)[C@H](Cc2ccc(OP(=O)(O)OCc3ccccc3)cc2)NC(=O)OC(C)(C)C)cc1` (stereo partly drawn), 873 µM. The same measure, in the same setting: to `CC(=O)N[C@@H](Cc1ccc(OP(=O)(O)O)cc1)C(=O)N[C@H]1CSCCN(Cc2cccc(OC(F)(F)F)c2)C1=O` belongs 0.4 µM; to `COc1ccc(C2Sc3ccccc3N(C(C(=O)Nc3cccc4ccccc34)c3ccccc3)C(=O)C2NC(=O)[C@H](Cc2ccc(OP(=O)(O)OCc3ccccc3)cc2)NC(=O)OC(C)(C)C)cc1` (stereo partly drawn), 23 µM.

For the compound `COC(=O)c1cccc(CN2CCSC[C@H](NC(=O)[C@H](Cc3ccc(OP(=O)(O)O)cc3)NC(C)=O)C2=O)c1`, in assay [1], the IC50 is 0.13 µM. `COc1ccc(C2Sc3ccccc3N(Cc3ccc(-c4ccccc4C(=O)OC(C)(C)C)cc3)C(=O)C2NC(=O)[C@H](Cc2ccc(OP(=O)(O)OCc3ccccc3)cc2)NC(=O)OC(C)(C)C)cc1` (stereo partly drawn): the IC50 in assay [2] worked out at 18 µM.

Take `CC(C)(C)OC(=O)N[C@@H](Cc1ccc(OP(=O)(O)OCc2ccccc2)cc1)C(=O)NC1CSc2ccccc2N(CCCC2CCCCC2)C1=O` (stereo partly drawn): the IC50 in assay [3] stood at 13 µM; in assay [2] it was 26 µM; in assay [4] it was 87 µM. The corresponding values for `CC[C@H](C)[C@H](NC(=O)[C@H](CCC(=O)O)NC(=O)[C@H](CCC(=O)O)NC(=O)[C@@H](N)Cc1ccc(OP(=O)(O)O)cc1)C(=O)O` are 0.15 µM, 6.5 µM and 5 µM. In assay [1], `CC(=O)N[C@@H](Cc1ccc(OP(=O)(O)O)cc1)C(=O)N[C@H]1CSCCN(CC(=O)c2ccc(N(C)C)cc2)C1=O` showed an IC50 of 9.3 µM.

Turning to `COc1ccc(C2Sc3ccccc3N(CCCC3CCCCC3)C(=O)C2NC(=O)[C@H](Cc2ccc(OP(=O)(O)OCc3ccccc3)cc2)NC(=O)OC(C)(C)C)cc1` (stereo partly drawn), the IC50 was > 100 µM in assay [3], 6.4 µM in assay [2] and 28 µM in assay [4]. In the case of `COc1ccc(C2Sc3ccccc3N(CC(=O)Nc3ccc(Oc4ccccc4)cc3)C(=O)C2NC(=O)[C@H](Cc2ccc(OP(=O)(O)OCc3ccccc3)cc2)NC(=O)OC(C)(C)C)cc1` (stereo partly drawn), the IC50 in assay [2] worked out at 29 µM. The same measure, in the same setting: to `CC(=O)N[C@@H](Cc1ccc(OP(=O)(O)O)cc1)C(=O)N[C@H]1CSCCN(Cc2cccc(C(=O)c3ccccc3)c2)C1=O` belongs 1.6 µM; to `COc1ccc(C2Sc3ccccc3N(CC(=O)NCc3cccc4ccccc34)C(=O)C2NC(=O)c2ccc3cc(OP(=O)(O)OCc4ccccc4)ccc3c2)cc1` (stereo not drawn), 23 µM. Regarding `CC(=O)N[C@@H](Cc1ccc(OP(=O)(O)O)cc1)C(=O)N[C@H]1CSCCN(Cc2ccc3c(c2Cl)OCO3)C1=O`, in assay [1], the IC50 was 1.2 µM.

For the compound `CC(C)(C)OC(=O)N[C@H](Cc1ccc(OP(=O)(O)O)cc1)C(=O)NC1CSc2ccccc2N(CCCC2CCCCC2)C1=O` (stereo partly drawn), the IC50 in assay [3] was found to be 18 µM; in assay [2], 422 µM. For `CC(C)(C)OC(=O)N[C@@H](Cc1ccc(OP(=O)(O)O)cc1)C(=O)NC1CSc2ccccc2N(CCCC2CCCCC2)C1=O` (stereo partly drawn), the values for the IC50 in assay [3], in assay [2] and in assay [4] were 1 µM, 10 µM and 11 µM, respectively.

On to `COc1ccc(C2Sc3ccccc3N(CC(=O)NCc3cccc4ccccc34)C(=O)C2NC(=O)c2cc3cc(OP(=O)(O)OCc4ccccc4)ccc3[nH]2)cc1` (stereo not drawn), for which the IC50 in assay [2] was 32 µM.

For `CC(C)(C)OC(=O)N[C@@H](Cc1ccc(OP(=O)(O)O)cc1)C(=O)NC1CSCCN(CCCC2CCCCC2)C1=O` (stereo partly drawn), the values for the 50% inhibitory concentration (IC50) in assay [3] and in assay [2] were 1.4 µM and 115 µM, respectively.

`CC(=O)N[C@@H](Cc1ccc(OP(=O)(O)O)cc1)C(=O)N[C@H]1CSCCN(Cc2cccc(C(F)(F)F)c2)C1=O`: in assay [2], the IC50 was found to be 1.6 µM. Turning to `COc1ccc(C2Sc3ccccc3N(CC(=O)NCc3cccc4ccccc34)C(=O)C2NC(=O)[C@H](Cc2ccc(OP(=O)(O)OCc3ccccc3)cc2)NC(=O)OC(C)(C)C)cc1` (stereo in doubt; 3a), the IC50 in assay [2] is 128 µM. `COc1ccc(C2Sc3ccccc3N(CC(=O)NCc3cccc4ccccc34)C(=O)C2NC(=O)[C@H](Cc2ccc(OP(=O)(O)OCc3ccccc3)cc2)NC(=O)OC(C)(C)C)cc1` (stereo in doubt; 3b) displayed an IC50 in assay [2] of 118 µM.

As for `COc1ccc(C2Sc3ccccc3N(CC(=O)Nc3cccc4ccccc34)C(=O)C2NC(=O)[C@H](Cc2ccc(OP(=O)(O)OCc3ccccc3)cc2)NC(=O)OC(C)(C)C)cc1` (stereo in doubt; 3c), in assay [2], the IC50 amounted to 189 µM. The same measure, in the same setting: for `COc1ccc(C2Sc3ccccc3N(CC(=O)Nc3cccc4ccccc34)C(=O)C2NC(=O)[C@H](Cc2ccc(OP(=O)(O)OCc3ccccc3)cc2)NC(=O)OC(C)(C)C)cc1` (stereo in doubt; 3l) the value was 133 µM; for `COc1ccc(C2Sc3ccccc3N(CC(=O)Nc3cccc4ccccc34)C(=O)C2NC(=O)[C@H](Cc2ccc(OP(=O)(O)OCc3ccccc3)cc2)NC(=O)OC(C)(C)C)cc1` (stereo in doubt; 3m), 26 µM. As to `COc1ccc(C2Sc3ccccc3N(CC(=O)Nc3cccc4ccccc34)C(=O)C2NC(=O)[C@H](Cc2ccc(OP(=O)(O)OCc3ccccc3)cc2)NC(=O)OC(C)(C)C)cc1` (stereo in doubt; 3n), the half-inhibitory concentration (IC50) in assay [2] amounted to 23 µM.

One may read the IC50 as the point on the concentration scale where inhibition reaches its midpoint. Low values mean inhibition by little substance, high ones a need for much substance.
